# Results: patent publication US20170333591A9, “ABSORBENT ARTICLE COMPRISING MALODOR REDUCTION COMPOSITIONS” (The Procter & Gamble Company, priority 2014, published 2017)
# Experiment: Log of liquid dish neat product liquid-air partition coefficient
# Format: physicochemical
# Conditions: not given
row,SMILES,Comment Code: Log of liquid dish neat product liquid-air partition coefficient
1,CC(=O)OCCc1ccccc1 [Material 832],K (Log of liquid dish neat product liquid-air partition coefficient greater than or equal to 7)
2,CCC(=O)OCCc1ccccc1 [Material 835],K (Log of liquid dish neat product liquid-air partition coefficient greater than or equal to 7)
3,CCCCCCCC1(C)OCC(C)O1 (stereo not shown) [Material 838],K (Log of liquid dish neat product liquid-air partition coefficient greater than or equal to 7)
4,CCC(C)c1nccnc1OC (stereo not shown) [Material 845],K (Log of liquid dish neat product liquid-air partition coefficient greater than or equal to 7)
5,CNC(=O)C(C)(C(C)C)C(C)C [Material 846],K (Log of liquid dish neat product liquid-air partition coefficient greater than or equal to 7)
6,CC1=C2CC(C(C)(C)O)CCC2(C)CCC1 (stereo not shown) [Material 872],K (Log of liquid dish neat product liquid-air partition coefficient greater than or equal to 7)
7,CC=CC(=O)C1C(C)=CCCC1(C)C (stereo not shown) [Material 880],K (Log of liquid dish neat product liquid-air partition coefficient greater than or equal to 7)
8,C=C[C@](C)(O)CCC=C(C)C [Material 888],K (Log of liquid dish neat product liquid-air partition coefficient greater than or equal to 7)
9,C=CCOC(=O)COC1CCCCC1 [Material 918],K (Log of liquid dish neat product liquid-air partition coefficient greater than or equal to 7)
10,CCC(=O)OC1CC2CC1C1CC=CC21 (stereo not shown) [Material 919],K (Log of liquid dish neat product liquid-air partition coefficient greater than or equal to 7)
11,CC12CCCC(C)(CC1)C2=NO [Material 921],K (Log of liquid dish neat product liquid-air partition coefficient greater than or equal to 7)
12,CC(=O)c1cc2c(cc1C)C(C)(C)C(C)C2(C)C (stereo not shown) [Material 927],K (Log of liquid dish neat product liquid-air partition coefficient greater than or equal to 7)
13,C=C(OC(C)=O)c1ccccc1 [Material 931],K (Log of liquid dish neat product liquid-air partition coefficient greater than or equal to 7)
14,CC1CCC2(O)C(C)(C)C3CCC2(C)C1C3 (stereo not shown) [Material 933],K (Log of liquid dish neat product liquid-air partition coefficient greater than or equal to 7)
15,O=COCCc1ccccc1 [Material 956],K (Log of liquid dish neat product liquid-air partition coefficient greater than or equal to 7)
16,CC(C)C(=O)OCCc1ccccc1 [Material 958],K (Log of liquid dish neat product liquid-air partition coefficient greater than or equal to 7)
17,C/C=C(\C)C(=O)OCCc1ccccc1 [Material 960],K (Log of liquid dish neat product liquid-air partition coefficient greater than or equal to 7)

# Same assay, conditions: code letters K/L of the Comment Code
row,SMILES,Log of liquid dish neat product liquid-air partition coefficient (Comment Code)
1,CCCC(=O)OCCc1ccccc1 [Material 831],K (Log of liquid dish neat product liquid-air partition coefficient greater than or equal to 7)
2,OCCOc1ccccc1 [Material 834],K (Log of liquid dish neat product liquid-air partition coefficient greater than or equal to 7)
3,CC(C)Cc1ccc2ccccc2n1 [Material 849],K (Log of liquid dish neat product liquid-air partition coefficient greater than or equal to 7)
4,CCC=CCCC=CCO [Material 865],K (Log of liquid dish neat product liquid-air partition coefficient greater than or equal to 7)
5,CCCCCCCCCCO [Material 868],K (Log of liquid dish neat product liquid-air partition coefficient greater than or equal to 7)
6,C=CCCCCCCCCCO [Material 870],K (Log of liquid dish neat product liquid-air partition coefficient greater than or equal to 7)
7,C=CCCCCCCCCC=O [Material 871],K (Log of liquid dish neat product liquid-air partition coefficient greater than or equal to 7)
8,CC1=C2CC(C(C)(C)O)CCC2(C)CCC1 (stereo not shown) [Material 872],K (Log of liquid dish neat product liquid-air partition coefficient greater than or equal to 7)
9,CC(=O)OC(C)CCC=C(C)CCC=C(C)C (stereo not shown) [Material 881],K (Log of liquid dish neat product liquid-air partition coefficient greater than or equal to 7)
10,CCCCCCCC/C=C\CC=O [Material 884],K (Log of liquid dish neat product liquid-air partition coefficient greater than or equal to 7)
11,CC(=O)OC(C)CC/C=C(\C)CCC=C(C)C (stereo not shown) [Material 890],K (Log of liquid dish neat product liquid-air partition coefficient greater than or equal to 7)
12,C/C(=C/C#N)CCc1ccccc1 [Material 892],K (Log of liquid dish neat product liquid-air partition coefficient greater than or equal to 7)
13,CC1CCC2(O1)C(C)(C)CCCC2(C)O (stereo not shown) [Material 893],K (Log of liquid dish neat product liquid-air partition coefficient greater than or equal to 7)
14,C/C(=C\C#N)CCc1ccccc1 [Material 894],K (Log of liquid dish neat product liquid-air partition coefficient greater than or equal to 7)
15,CC(=CCC1CC=C(C)C1(C)C)CO (stereo not shown) [Material 908],K (Log of liquid dish neat product liquid-air partition coefficient greater than or equal to 7)
16,CC1=CC2CC(C3OCCO3)C1CC2C(C)C (stereo not shown) [Material 912],K (Log of liquid dish neat product liquid-air partition coefficient greater than or equal to 7)
17,C=C1CCCC(C)(C)C1C=C(C)C(C)=O (stereo not shown) [Material 913],K (Log of liquid dish neat product liquid-air partition coefficient greater than or equal to 7)
18,CC(C)c1cccc(C(C)CC=O)c1 (stereo not shown) [Material 914],K (Log of liquid dish neat product liquid-air partition coefficient greater than or equal to 7)
19,C=CC(C)(CCC=C(C)C)OC(C)OCC (stereo not shown) [Material 916],K (Log of liquid dish neat product liquid-air partition coefficient greater than or equal to 7)

row,SMILES,Log of liquid dish neat product liquid-air partition coefficient (Comment Code)
1,CCC(=O)OC1CC2CC1C1CC=CC21 (stereo not shown) [Material 919],K (Log of liquid dish neat product liquid-air partition coefficient greater than or equal to 7)
2,CC1=C2CCC(C)C2CC(C(C)(C)O)CC1 (stereo not shown) [Material 920],K (Log of liquid dish neat product liquid-air partition coefficient greater than or equal to 7)
3,C/C=C/c1cc(OC)c(OC)cc1OC [Material 924],K (Log of liquid dish neat product liquid-air partition coefficient greater than or equal to 7)
4,CC(C)(C=O)CC1=CCC2CC1C2(C)C (stereo not shown) [Material 925],K (Log of liquid dish neat product liquid-air partition coefficient greater than or equal to 7)
5,CC(=O)c1cc2c(cc1C)C(C)(C)C(C)C2(C)C (stereo not shown) [Material 927],K (Log of liquid dish neat product liquid-air partition coefficient greater than or equal to 7)
6,Cc1cccc(CCO)c1 [Material 928],K (Log of liquid dish neat product liquid-air partition coefficient greater than or equal to 7)
7,CCC=CCC=CCCO [Material 929],K (Log of liquid dish neat product liquid-air partition coefficient greater than or equal to 7)
8,CCCCCCCCCCC=CC=O [Material 930],K (Log of liquid dish neat product liquid-air partition coefficient greater than or equal to 7)
9,CC1CCC2(O)C(C)(C)C3CCC2(C)C1C3 (stereo not shown) [Material 933],K (Log of liquid dish neat product liquid-air partition coefficient greater than or equal to 7)
10,CCCCCC(=O)Oc1ccc(C)cc1 [Material 939],K (Log of liquid dish neat product liquid-air partition coefficient greater than or equal to 7)
11,CCCCC/C=C/C=C\C(=O)OCC [Material 942],K (Log of liquid dish neat product liquid-air partition coefficient greater than or equal to 7)
12,N#CC(=C1CCCCC1)c1ccccc1 [Material 945],K (Log of liquid dish neat product liquid-air partition coefficient greater than or equal to 7)
13,C=C(C)C1CC=C(C=O)CC1 (stereo not shown) [Material 946],K (Log of liquid dish neat product liquid-air partition coefficient greater than or equal to 7)
14,C=C(C)C1CC=C(COC(C)=O)CC1 (stereo not shown) [Material 947],K (Log of liquid dish neat product liquid-air partition coefficient greater than or equal to 7)
15,C=C(C)C1CC=C(CO)CC1 (stereo not shown) [Material 948],K (Log of liquid dish neat product liquid-air partition coefficient greater than or equal to 7)
16,CCCCC/C=C/C=C\C(=O)OCC [Material 951],K (Log of liquid dish neat product liquid-air partition coefficient greater than or equal to 7)
17,c1ccc(CCOC2CCCCC2)cc1 [Material 953],K (Log of liquid dish neat product liquid-air partition coefficient greater than or equal to 7)
18,CCC(C)C(=O)OCCc1ccccc1 (stereo not shown) [Material 954],K (Log of liquid dish neat product liquid-air partition coefficient greater than or equal to 7)
19,OCCc1ccccc1 [Material 955],K (Log of liquid dish neat product liquid-air partition coefficient greater than or equal to 7)
